# Source: patent EP0077961A2, “Substituted 2-nitro-5-(4-trifluoromethyl-phenoxy) toluols, process for their preparation and their use as herbicides and plant growth regulators” (BAYER AG, priority 1981, dated 1983)
# Test system: Baumwollpflanzen
# Experiment: Defoliation and desiccation of the leaves of cotton (Beispiel A)
# Type: in vivo, Baumwolle
# Conditions: greenhouse; cotton plants sprayed dripping wet at full unfolding of the 5th leaf; rated after 1 week against control plants; concentration not given
# Source text: Entlaubung und Austrocknung der Blätter bei Baumwolle
# Lösungsmittel: 30 Gewichtsteile Dimethylformamid Emulgator: 1 Gewichtsteil Polyoxyethylen-SorbitanMonolaurat
# Zur Herstellung einer zweckmäßigen Wirkstoffzubereitung vermischt man 1 Gewichtsteil Wirkstoff mit den angegebenen Mengen Lösungsmittel und Emulgator und füllt mit Wasser auf die gewünschte Konzentration auf.
# Baumwollpflanzen werden im Gewächshaus bis zur vollen Entfaltung des 5. Folgeblattes angezogen. In diesem Stadium werden die Pflanzen tropfnaß mit den Wirkstoffzubereitungen besprüht. Nach 1 Woche werden der Blattfall und das Austrocknen der Blätter im Vergleich zu den Kontrollpflanzen bonitiert. Es bedeuten: • 0 kein Austrocknen der Blätter, kein Blattfall • + leichtes Austrocknen der Blätter, geringer Blattfall • ++ starkes Austrocknen der Blätter, starker Blattfall • sehr starkes Austrocknen der Blätter, sehr starker Blattfall
smiles,measurement,value
"CC(=O)OCc1cc(Oc2ccc(C(F)(F)F)cc2Cl)ccc1[N+](=O)[O-] [Beispiel 1, Essigsäure-(2-nitro-5-(2-chlor-4-trifluormethyl-phenoxy)-benzyl)-ester]",Blattfall und Austrocknen der Blätter,starke Wirksamkeit
